In patent publication EP4725957A1, “GROUP OF CYCLIC ALKALINE LIPOPEPTIDE COMPOUNDS, AND PREPARATION METHOD THEREFOR AND USE THEREOF” (Institute of Medicinal Biotechnology, Chinese Academy of …, priority 2023, dated 2024):
In brackets after ≈: the same amount, converted by molar mass. Bridge positions count the residues as written; N and C are the ends. Square brackets hold non-standard residues; d marks the D form. Peptide text beside a SMILES is read from it. * marks the point of attachment. Heptanoyl(6-Me) = CC(C)CCCCC(=O)*; Sulfomethyl = O=S(=O)(O)C*; Nonanoyl = CCCCCCCCC(=O)*; X1 = CC[C@H](C)CCCCC(=O)*; dDab = NCC[C@@H](N)C(=O)O; Octanoyl = CCCCCCCC(=O)*; Orn = NCCC[C@H](N)C(=O)O; dDap = NC[C@@H](N)C(=O)O; Dab = NCC[C@H](N)C(=O)O; Dap = NC[C@H](N)C(=O)O

Experiments:
Assay type in all cases: cell-based
[1] = Nephrotoxicity assay: in vitro cytotoxicity of HK-2 cells by CCK-8 assay; conditions: human, HK-2 cells (human renal), 72 h incubation with drug-containing medium
Procedure: In vitro cytotoxicity detection of HK-2 cells was performed by the CCK-8 assay.
The culture medium for human renal HK-2 cells was a complete RPMI-1640 medium (Invitrogen) supplemented with 10% fetal bovine serum (FBS, Gibco). The cryopreservation solution was composed of 90% FBS and 10% dimethyl sulfoxide (DMSO), and the cells were preserved long-term in liquid nitrogen. Cells were cultured in a sterile incubator with a humidified atmosphere containing 5% CO2 at 37°C. When the cell density reached 70%-80%, cell digestion and subculture were conducted. The cyclic lipopeptide compounds prepared in Examples 1-120 were weighed and dissolved in sterile water to prepare a mother solution with a concentration of 1 mg/mL. Drug-containing culture media were then formulated, with the final concentrations set as 500, 250, 200, 100, 50, 25, and 12.5 µg/mL, respectively. Cells were adjusted to a density of 5 × 10^4 cells/mL and seeded into 96-well plates, with 100 µL of cell suspension added to each well. After stable incubation for 24 h, the original medium was replaced with the prepared drug-containing medium, and the plates were incubated in the incubator for an additional 72 h. The medium was gently aspirated, and 100 µL of blank medium containing 10% CCK-8 was added to each well. After incubation in the incubator for 3 h, the optical density (OD) values at 450 nm were measured using a BIOTEK microplate reader. The experiment was repeated three times. For each replicate, polymyxin B was set as the positive drug, and a drug-free blank group was established as the control. The cell viability (%) was calculated by the formula: Cell viability (%) = [(OD of drug-treated group - OD of zero-setting) / (OD of drug-free group - OD of zero-setting)] × 100%. The half-maximal inhibitory concentration (IC50) values were calculated through logarithmic regression analysis.
The cells used for the nephrotoxicity assay were obtained from the ATCC ( American Type Culture Collection). The Cell Counting Kit-8 (CCK-8) used in the assay was supplied by Beyotime Biotechnology Co., Ltd.

[2] = test system: Escherichia coli ATCC BAA-2523; conditions: ATCC BAA-2523
Procedure: (§1) The minimal inhibitory concentration (MIC) was determined by the broth microdilution method according to the recommended procedures of the Clinical and Laboratory Standards Institute (CLSI).
(§2) An appropriate amount of the cyclic lipopeptide compounds prepared in Examples 1-120 and the reference standards were weighed and dissolved in sterile pure water. An appropriate volume of the mother solution was subjected to ten-fold dilution with sterile Mueller-Hinton (MH) broth to a concentration of 0.256 mg/mL. Half of the drug solution was aliquoted into 96-well reagent reservoirs, while the other half was subjected to two-fold serial dilution with sterile MH broth before being transferred into deep-well reagent reservoirs. The above steps were repeated, so that the drug concentrations in the reagent reservoirs were adjusted to 128, 64, 32, 16, 8, 4, 2, 1, 0.5, 0.25, 0.125 and 0.06 mg/L in sequence, and all solutions were prepared and used immediately. Several colonies were picked from agar plates cultured for 18-24 h and directly suspended in sterile normal saline, and the concentration of the bacterial suspension was adjusted to 0.5 McFarland units. The calibrated bacterial suspension was diluted with MH broth to a concentration of (4-8) × 10^5 colony-forming units per milliliter (CFU/mL) and prepared and used immediately. A volume of 100 µL of the aforementioned compounds of the present disclosure (e.g., the compounds prepared in the examples) and reference solutions at different concentrations was separately pipetted into wells 1 to 12 of sterile 96-well polystyrene plates, and an additional 100 µL of the aforementioned inoculum was added to each well. The final concentrations of the samples in the wells were adjusted to 64, 32, 16, 8, 4, 2, 1, 0.5, 0.25, 0.125, 0.06 and 0.03 mg/L, respectively, and the final concentration of the inoculum in each well was (2-4) × 10^5 CFU/mL. Additional growth control wells were set up, each containing 100 µL of the inoculum and 100 µL of sterile MH broth. The test substances and inocula in all wells were mixed thoroughly and then sealed. The inoculated 96-well plates were incubated in an incubator at 35-37°C for 16-20 h.
(§3) The strains used for the antibacterial activity assay were obtained from the American Type Culture Collection (ATCC) and clinical isolates.
(§4) The strains employed for the antibacterial activity assay included Escherichia coli ATCC BAA-2523, ATCC BAA-2340 (KPC), Klebsiella pneumoniae KPN+19-15, ATCC BAA-1705 (KPC), Pseudomonas aeruginosa PAE19-3, ATCC 27853, Acinetobacter baumannii ABA19-1, and NCTC 13304 (OXA-27).

[3] = test system: Acinetobacter baumannii ABA19-1; conditions: ABA19-1
Procedure: as §1, §2, §3, §4

[4] = test system: Klebsiella pneumoniae KPN+19-15; conditions: KPN+19-15
Procedure: as §1, §2, §3, §4

[5] = test system: Klebsiella pneumoniae ATCC BAA-1705 (KPC); conditions: ATCC BAA-1705
Procedure: as §1, §2, §3, §4

[6] = test system: Acinetobacter baumannii NCTC 13304 (OXA-27); conditions: NCTC 13304
Procedure: as §1, §2, §3, §4

[7] = test system: Escherichia coli ATCC BAA-2340 (KPC); conditions: ATCC BAA-2340
Procedure: as §1, §2, §3, §4

[8] = test system: Pseudomonas aeruginosa PAE19-3; conditions: PAE19-3
Procedure: as §1, §2, §3, §4

[9] = test system: Pseudomonas aeruginosa ATCC 27853; conditions: ATCC 27853
Procedure: as §1, §2, §3, §4

Row | SMILES | IC50 at 72 h [1] [µg/mL] | MIC [2] [µg/mL] | MIC [3] [µg/mL] | MIC [4] [µg/mL] | MIC [5] [µg/mL] | MIC [6] [µg/mL] | MIC [7] [µg/mL] | MIC [8] [µg/mL] | MIC [9] [µg/mL]
1 | CCCCCCCCC(=O)N[C@@H](CCN)C(=O)N[C@H](C(=O)N[C@H](CN)C(=O)N[C@H]1CCNC(=O)[C@H]([C@@H](C)O)NC(=O)[C@H](CCN)NC(=O)[C@H](CCN)NC(=O)[C@H](CC(C)C)NC(=O)[C@@H](Cc2ccccc2)NC(=O)[C@H](CCN)NC1=O)[C@@H](C)O [Compound 35, Nonanoyl-Dab-Thr-D-Dap-ring(4-10)[Dab-Dab-D-Phe-Leu-Dab-Dab-Thr]] (Nonanoyl-[Dab]T[dDap][Dab][Dab][dF]L[Dab][Dab]T; lactam 4-C) | 138 ± 8.3 (≈ 116 µM) | 0.06 (≈ 0.0504 µM) | 0.06 (≈ 0.0504 µM) | 0.06 (≈ 0.0504 µM) | 0.06 (≈ 0.0504 µM) | 0.06 (≈ 0.0504 µM) | 0.06 (≈ 0.0504 µM) | 0.5 (≈ 0.42 µM) | 0.06 (≈ 0.0504 µM)
2 | CC(C)CCCCC(=O)N[C@@H](CCN)C(=O)N[C@H](C(=O)N[C@@H](CN)C(=O)N[C@H]1CCNC(=O)[C@H]([C@@H](C)O)NC(=O)[C@H](CCN)NC(=O)[C@H](CCN)NC(=O)[C@H](CC(C)C)NC(=O)[C@@H](Cc2ccccc2)NC(=O)[C@H](CCN)NC1=O)[C@@H](C)O [Compound 37, 6-methylheptanoyl-Dab-Thr-Dap-ring(4-10)[Dab-Dab-D-Phe-Leu-Dab-Dab-Thr]] ({Heptanoyl(6-Me)}-[Dab]T[Dap][Dab][Dab][dF]L[Dab][Dab]T; lactam 4-C) | 318 ± 10.2 (≈ 270 µM) | 0.03 (≈ 0.0255 µM) | 0.03 (≈ 0.0255 µM) | 0.03 (≈ 0.0255 µM) | 0.03 (≈ 0.0255 µM) | 0.03 (≈ 0.0255 µM) | 0.03 (≈ 0.0255 µM) | 0.25 (≈ 0.213 µM) | 0.03 (≈ 0.0255 µM)
3 | CC[C@H](C)CCCCC(=O)N[C@@H](CCN)C(=O)N[C@H](C(=O)N[C@H](CO)C(=O)N[C@H]1CCNC(=O)[C@H]([C@@H](C)O)NC(=O)[C@H](CCN)NC(=O)[C@H](CN)NC(=O)[C@H]([C@@H](C)O)NC(=O)[C@@H](Cc2ccccc2)NC(=O)[C@H](CCN)NC1=O)[C@@H](C)O [Compound 71, (S)-6-methyloctanoyl-Dab-Thr-D-Ser-ring(4-10)[Dab-Dab-D-Phe-Thr-Dap-Dab-Thr]] (X1-[Dab]T[dS][Dab][Dab][dF]T[Dap][Dab]T; lactam 4-C) | > 500 | ≤0.03 | 0.06 (≈ 0.0515 µM) | 0.5 (≈ 0.429 µM) | 0.25 (≈ 0.215 µM) | ≤0.03 | ≤0.03 | 64 (≈ 55 µM) | >64
4 | CC(C)CCCCC(=O)N[C@@H](CCN)C(=O)N[C@H](C(=O)N[C@H](CO)C(=O)N[C@H]1CCNC(=O)[C@H]([C@@H](C)OCS(=O)(=O)O)NC(=O)[C@H](CCN)NC(=O)[C@H](CCN)NC(=O)[C@H]([C@@H](C)O)NC(=O)[C@@H](Cc2ccccc2)NC(=O)[C@H](CCN)NC1=O)[C@@H](C)O [Compound 106, 6-methylheptanoyl-Dab-Thr-D-Ser-ring(4-10)[Dab-Dab-D-Phe-Thr-Dab-Dab-Thr(CH2SO3H)]] ({Heptanoyl(6-Me)}-[Dab]T[dS][Dab][Dab][dF]T[Dab][Dab]T(Sulfomethyl); lactam 4-C) | > 500 | 0.03 (≈ 0.0238 µM) | 0.06 (≈ 0.0477 µM) | 0.125 (≈ 0.0993 µM) | 0.125 (≈ 0.0993 µM) | 0.06 (≈ 0.0477 µM) | 0.03 (≈ 0.0238 µM) | 0.25 (≈ 0.199 µM) | 0.25 (≈ 0.199 µM)
5 | CCCCCCCC(=O)N[C@@H](CCN)C(=O)N[C@H](C(=O)N[C@H](CO)C(=O)N[C@H]1CCNC(=O)[C@H]([C@@H](C)O)NC(=O)[C@H](CCN)NC(=O)[C@H](CN)NC(=O)[C@H]([C@@H](C)O)NC(=O)[C@@H](Cc2ccccc2)NC(=O)[C@H](CCN)NC1=O)[C@@H](C)O [Compound 73, Octanoyl-Dab-Thr-D-Ser-ring(4-10)[Dab-Dab-D-Phe-Thr-Dap-Dab-Thr]] (Octanoyl-[Dab]T[dS][Dab][Dab][dF]T[Dap][Dab]T; lactam 4-C) | > 500 | ≤0.03 | 0.06 (≈ 0.0522 µM) | 0.5 (≈ 0.435 µM) | 0.25 (≈ 0.217 µM) | ≤0.03 | ≤0.03 | 64 (≈ 55.6 µM) | >64
6 | CC[C@H](C)CCCCC(=O)N[C@@H](CCN)C(=O)N[C@H](C(=O)N[C@H](CO)C(=O)N[C@H]1CCNC(=O)[C@H]([C@@H](C)O)NC(=O)[C@H](CCCN)NC(=O)[C@H](CCN)NC(=O)[C@H]([C@@H](C)O)NC(=O)[C@@H](Cc2ccccc2)NC(=O)[C@H](CCN)NC1=O)[C@@H](C)O [Compound 86, (S)-6-methyloctanoyl-Dab-Thr-D-Ser-ring(4-10)[Dab-Dab-D-Phe-Thr-Dab-Orn-Thr]] (X1-[Dab]T[dS][Dab][Dab][dF]T[Dab][Orn]T; lactam 4-C) | > 500 | 0.03 (≈ 0.0252 µM) | 0.06 (≈ 0.0503 µM) | 0.5 (≈ 0.419 µM) | 0.25 (≈ 0.21 µM) | ≤0.03 | 0.03 (≈ 0.0252 µM) | 64 (≈ 53.7 µM) | >64
7 | CC[C@H](C)CCCCC(=O)N[C@@H](CCN)C(=O)N[C@H](C(=O)N[C@H](CCN)C(=O)N[C@H]1CCNC(=O)[C@H]([C@@H](C)O)NC(=O)[C@H](CCN)NC(=O)[C@H](CCN)NC(=O)[C@H]([C@@H](C)O)NC(=O)[C@@H](Cc2ccccc2)NC(=O)[C@H](CCN)NC1=O)[C@@H](C)O [Compound 11, (S)-6-methyloctanoyl-Dab-Thr-D-Dab-ring(4-10)[Dab-Dab-D-Phe-Thr-Dab-Dab-Thr]] (X1-[Dab]T[dDab][Dab][Dab][dF]T[Dab][Dab]T; lactam 4-C) | 371 ± 54.6 (≈ 311 µM) | ≤0.03 | ≤0.03 | ≤0.03 | ≤0.03 | ≤0.03 | ≤0.03 | 1 (≈ 0.839 µM) | 1 (≈ 0.839 µM)
8 | CC(C)CCCCC(=O)N[C@@H](CCCN)C(=O)N[C@H](C(=O)N[C@H](CO)C(=O)N[C@H]1CCNC(=O)[C@H]([C@@H](C)O)NC(=O)[C@H](CCN)NC(=O)[C@H](CCN)NC(=O)[C@H]([C@@H](C)O)NC(=O)[C@@H](Cc2ccccc2)NC(=O)[C@H](CCN)NC1=O)[C@@H](C)O [Compound 57, 6-methylheptanoyl-Orn-Thr-D-Ser-ring(4-10)[Dab-Dab-D-Phe-Thr-Dab-Dab-Thr]] ({Heptanoyl(6-Me)}-[Orn]T[dS][Dab][Dab][dF]T[Dab][Dab]T; lactam 4-C) | > 500 | 0.125 (≈ 0.106 µM) | 0.25 (≈ 0.212 µM) | 0.5 (≈ 0.424 µM) | 0.25 (≈ 0.212 µM) | 0.25 (≈ 0.212 µM) | 0.125 (≈ 0.106 µM) | 4 (≈ 3.39 µM) | 64 (≈ 54.3 µM)
